What was measured:
mice = assay: Animal survival against a lethal dose total body irradiation; type: in vivo
Protocol: (§1) FIGS. 4A and 4B show the effect of CPA on animal survival against a lethal dose total body irradiation (TBI). FIG. 4A: Two oral administrations of CPA at 24 h and 1 h prior to irradiation at 8 Gy. FIG. 4B: CPA at 6 mg/kg or vehicle control was administered twice prior to irradiation as (FIG. 4A) along with un-irradiated control mice for Granulocyte-macrophage colony forming units.
The effect of CPA on animal survival against a lethal dose total body irradiation was determined. […] This effect was most prominent with CPA treatment at 6 mg/kg showing 89% survival while only 17% of controls survived.

bone marrow cells = assay: Granulocyte-macrophage colony forming units from bone marrow after total body irradiation; type: in vivo, mice; conditions: 6 mg/kg twice prior to irradiation; bone marrow collected 3 d after TBI, counted 8-9 d after plating; p<0.05 IR vs IR+CPA
Protocol: as §1
CPA at 6 mg/kg or vehicle control was administered twice prior to irradiation as described above along with un-irradiated control mice for Granulocyte-macrophage colony forming units.

TiL1 cells = assay: Cell viability assay with irradiated TiL1 cells (ATPlite); type: cell-based; conditions: 2Gy, ATPlite 24 hours after irradiation, normalized to vehicle control
Protocol: FIGS. 3A and 3B show radiation dose-responses of irradiated TiL1 cells treated with cyclopiazonic acid (CPA). Cell viability assay with TiL1 cells was measured using ATPlite reagent 24 h after irradiation with 2Gy. CPA was added to the cells 3 h before IR for protection (FIG. 3A) or 1 h after IR for mitigation (FIG. 3B) activities.
Dose-responses of irradiated cells treated with cyclopiazonic acid (CPA) were determined. A cell viability assay with TiL1 cells was measured using ATPlite reagent 24 hours after irradiation with 2Gy. CPA was added to the cells 3 h before irradiation for protection (FIG. 3A), or 1 hour after irradiation mitigation (FIG. 3B) activities. The percent cell viability plotted was normalized to vehicle control value. As shown in FIGS. 3A and 3B CPA both protects and mitigates TiL1 cell from radiation damage.

TiL-1 cells = assay: ROS scavenging: intracellular ROS after irradiation (DCF-DA); type: cell-based; conditions: compound added 3 h before irradiation; DCF-DA 25 μM 1 h before; measured immediately after irradiation
Protocol: FIGS. 5A and 5B show the effect of CPA on ROS scavenging.
The effect of CPA on ROS scavenging was also evaluated. […] The intracellular ROS was measured immediately after irradiation in TiL-1 cells using 2′,7′-dichlorofluorescein diacetate (DCF-DA, Invitrogen). The compound and DCF-DA probe at 25 μM was added 3 h and 1 h before irradiation, respectively.

## cyclopiazonic acid [CPA]
mice; 6 mg/kg oral, 24 h and 1 h prior to irradiation at 8 Gy, 17% of controls survived
  survival: 89%
mice; two oral administrations at 24 h and 1 h prior to irradiation at 8 Gy
  protection from radiation-induced death: protected mice from radiation-induced death
Bone marrow cells
  Gm-CFU, protection of the immunohematopoietic system: protects the immunohematopoietic system
TiL1 cells; CPA added 1 hour after irradiation
  percent cell viability, mitigation activity: mitigates
TiL1 cells; CPA added 3 h before irradiation
  percent cell viability, protection activity: protects
TiL-1 cells
  reduction of irradiation induced reactive oxygen species: did not reduce

## CC(C)(C)c1cc(O)c(C(C)(C)C)cc1O [di-tBHQ, 2,5-ditertbutylhydroquinone, reference compound]
TiL-1 cells
  reduction of irradiation induced reactive oxygen species: did in dose-responsive manner
